The text below walks through data of patent US20240368104A1, “Novel Dialkoxynaphtho[2,3-C]Furan-1(3H)-One Derivatives and Pharmaceutical Composition For Preventing or Treating Respiratory Disease or SARS-COV-2 Infection Disease, Comprising Same” (priority 2021, published 2024).

Where a name gives a salt, the structure may show the parent alone. Read-outs that look alike come from different tables or passages of the source.

Data set [1] relates to SARS-COV-2. Put plainly: microbe, parasite or virus in culture. More on the design: SI (Selectivity Index, CC50/IC50): unit not given here. It is filed as cell-based. The conditions noted are these: for SI (Selectivity Index, CC50/IC50): SARS-COV-2, values >50 assumed to be 50; for IC50: read-out: SARS-COV-2 inhibition (IC50).
The nature of data set [2]: in vitro. The following applies: African green monkey.
Setting [3] is: Severe acute respiratory syndrome coronavirus 2, Vero, 24 h.
Setting [4] is: Severe acute respiratory syndrome coronavirus 2, Vero cells, 24 hours infection.

Regarding `CCC(C)CN(C)c1ccc(-c2c3c(cc4cc(OC)c(OC)cc24)COC3=O)cn1.Cl` (stereo not drawn) [Example 176, 6,7-dimethoxy-9-(6-(methyl(2-methylbutyl)amino)pyridin-3-yl)naphtho[2,3-c]furan-1(3H)-one], the “SI (Selectivity Index, CC50/IC50)” value in data set [1] is 22.63. Further, in data set [1] (setting [3]), the IC50 (in general, the concentration that gives 50% inhibition) stood at 2.21 µM. This compound showed a CC50 in data set [2] greater than 50 µM.
For `COc1cc2cc3c(c(-c4ccc(N(C)Cc5ccccc5C(F)(F)F)nc4)c2cc1OC)C(=O)OC3` [Example 208, 6,7-dimethoxy-9-(6-(methyl(2-(trifluoromethyl)benzyl)amino)pyridin-3-yl)naphtho[2,3-c]furan-1(3H)-one], in data set [1], the “SI (Selectivity Index, CC50/IC50)” value was 18.96. The IC50 in data set [1] (setting [4]) was 2.64 µM. The same compound yielded a CC50 in data set [2] greater than 50 µM.
For the compound `COc1cc2cc3c(c(-c4cc5c(cc4OC(=O)[C@@H]4CCCN4)OCO5)c2cc1OC)C(=O)OC3` [Example 273, 6-(6,7-dimethoxy-3-oxo-1,3-dihydronaphtho[2,3-c]furan-4-yl)benzo[d][1,3]dioxol-5-yl L-prolinate], the “SI (Selectivity Index, CC50/IC50)” value in data set [1] is on record as 36.52. In addition, the IC50 in data set [1] (setting [4]) is 1.37 µM. Moreover, the CC50 in data set [2] is greater than 50 µM.
The matching figures for `COc1cc2cc3c(c(-c4ccc5c(O)ccnc5c4C)c2cc1OC)C(=O)OC3` [Example 154, 9-(4-hydroxy-8-methylquinolin-7-yl)-6,7-dimethoxynaphtho[2,3-c]furan-1(3H)-one]: 1.0, greater than 50 µM and greater than 50 µM.
Taken in the same sequence, the figures for `COc1cc2cc3c(c(-c4cnc(OCCN5C[C@@H](C)O[C@@H](C)C5)nc4)c2cc1OC)C(=O)OC3` [Example 54, 9-(2-(2-((2S,6R)-2,6-dimethylmorpholino)ethoxy)pyrimidin-5-yl)-6,7-dimethoxynaphtho[2,3-c]furan-1(3H)-one] were 1.00, greater than 50 µM and greater than 50 µM.
On to `COc1cc2cc3c(c(-c4ccc(N5CCN(C)CC5)nc4)c2cc1OC)C(=O)OC3` [Example 167, 6,7-dimethoxy-9-(6-(4-methylpiperazin-1-yl)pyridin-3-yl)naphtho[2,3-c]furan-1(3H)-one], for which the “SI (Selectivity Index, CC50/IC50)” value in data set [1] was determined as 3.73. In data set [1] (setting [4]), the IC50 came out at 14.8 µM. Besides, the CC50 in data set [2] was greater than 50 µM.
As for `COC[C@H]1CCCN1c1ncc(-c2c3c(cc4cc(OC)c(OC)cc24)COC3=O)cn1` [Example 102, (R)-6,7-dimethoxy-9-(2-(2-(methoxymethyl)pyrrolidin-1-yl)pyrimidin-5-yl)naphtho[2,3-c]furan-1(3H)-one hydrochloride], the “SI (Selectivity Index, CC50/IC50)” value in data set [1] is given as 30.41. Further, the 50% inhibitory concentration (IC50) in data set [1] (setting [3]) was found to be 1.64 µM. This compound registered a CC50 in data set [2] greater than 50 µM.
Taken in the same sequence, the figures for `COc1cc2cc3c(c(-c4cc5c(cc4OP(=O)(NC(C)C)Oc4ccccc4)OCO5)c2cc1OC)C(=O)OC3` (stereo not drawn) [Example 278, 6-(6,7-dimethoxy-3-oxo-1,3-dihydronaphtho[2,3-c]furan-4-yl)benzo[d][1,3]dioxol-5-yl phenyl isopropylphosphoramidate] were 1.00, greater than 50 µM and greater than 50 µM.
The matching figures for `COc1cc2cc3c(c(-c4ccc(C(=O)C(F)(F)F)cc4)c2cc1OC)C(=O)OC3` [Example 210, 6,7-dimethoxy-9-(4-(2,2,2-trifluoroacetyl)phenyl)naphtho[2,3-c]furan-1(3H)-one]: 4.91, 10.2 µM and greater than 50 µM.
Take `COc1cc2cc3c(c(-c4cnc(N5CCOCC5)nc4)c2cc1OC)C(=O)OC3` [Example 51, 6,7-dimethoxy-9-(2-morpholinopyrimidin-5-yl)naphtho[2,3-c]furan-1(3H)-one]: the “SI (Selectivity Index, CC50/IC50)” value in data set [1] was determined as 34.12. The IC50 in data set [1] (setting [4]) was determined as 1.47 µM. Further, in data set [2], the CC50 was greater than 50 µM.
Taken in the same sequence, the figures for `CCN(CC)CCNc1c2c(cc3cc(OC)c(OC)cc13)COC2=O` [Example 6, 9-((2-(diethylamino)ethyl)amino)-6,7-dimethoxynaphtho[2,3-c]furan-1(3H)-one] were 1.00, greater than 50 µM and greater than 50 µM.
Taken in the same sequence, the figures for `COc1cc2cc3c(c(-c4cc5c(cc4OC(=O)c4ccncc4)OCO5)c2cc1OC)C(=O)OC3` [Example 271, 6-(6,7-dimethoxy-3-oxo-1,3-dihydronaphtho[2,3-c]furan-4-yl)benzo[d][1,3]dioxol-5-yl isonicoinate] were 34.41, 1.45 µM and greater than 50 µM.
Taken in the same sequence, the figures for `CCN(Cc1cccs1)c1ccc(-c2c3c(cc4cc(OC)c(OC)cc24)COC3=O)cn1` [Example 199, 9-(6-(ethyl(thiophen-2-ylmethyl)amino)pyridin-3-yl)-6,7-dimethoxynaphtho[2,3-c]furan-1(3H)-one] were 25.20, 1.98 µM and greater than 50 µM.
As to `COc1cc2cc3c(c(-c4ccc(N(C)Cc5cccnc5)cc4)c2cc1OC)C(=O)OC3` [Example 255, 6,7-dimethoxy-9-(4-(methyl(pyridin-3-ylmethyl)amino)phenyl)naphtho[2,3-c]furan-1(3H)-one], the “SI (Selectivity Index, CC50/IC50)” value in data set [1] is recorded as 15.74. The IC50 in data set [1] (setting [4]) was found to be 3.18 µM. The same compound returned a CC50 in data set [2] greater than 50 µM.
Taken in the same sequence, the figures for `COc1cc2cc3c(c(-c4cccc(N5CCCCC5)c4)c2cc1OC)C(=O)OC3` [Example 243, 6,7-dimethoxy-9-(3-(piperidin-1-yl)phenyl)naphtho[2,3-c]furan-1(3H)-one] were 3.26, 15.3 µM and greater than 50 µM.
For `COc1cc2c(OC)c3c(c(-c4ccc(N5CCC6(CC5)OCCO6)nc4)c2cc1OC)COC3=O` [Example 260, 4-(6-(1,4-dioxa-8-azaspiro[4.5]decan-8-yl)pyridin-3-yl)-6,7,9-trimethoxynaphtho[2,3-c]furan-1(3H)-one], in data set [1], the “SI (Selectivity Index, CC50/IC50)” value stood at 1.00. Moreover, the IC50 in data set [1] (setting [4]) was greater than 50 µM. The CC50 in data set [2] was greater than 50 µM.
In the case of `COc1cc2c(OC)c3c(c(-c4ccc5c(c4)OC(F)(F)O5)c2cc1OC)COC3=O` [Example 259, 4-(2,2-difluorobenzo[d][1,3]dioxol-5-yl)-6,7,9-trimethoxynaphtho[2,3-c]furan-1(3H)-one], the “SI (Selectivity Index, CC50/IC50)” value in data set [1] was 1.00. For the same compound, the IC50 in data set [1] (setting [4]) is greater than 50 µM. The compound also came in with a CC50 in data set [2] greater than 50 µM.
`CCN(CCOC)c1ccc(-c2c3c(cc4cc(OC)c(OC)cc24)COC3=O)cc1` [Example 253, 9-(4-(ethyl(2-methoxyethyl)amino)phenyl)-6,7-dimethoxynaphtho[2,3-c]furan-1(3H)-one]: the “SI (Selectivity Index, CC50/IC50)” value in data set [1] is 20.54. In addition, the IC50 in data set [1] (setting [4]) amounted to 2.43 µM. Further, the CC50 in data set [2] was greater than 50 µM.
The matching figures for `COc1cc2cc3c(c(-c4cnc(N5CCC[C@H]5C(=O)O)nc4)c2cc1OC)C(=O)OC3` [Example 61, (5-(6,7-dimethoxy-3-oxo-1,3-dihydronaphtho[2,3-c]furan-4-yl)pyrimidin-2-yl)-L-proline]: 1.00, greater than 50 µM and greater than 50 µM.
In the case of `COc1cc2cc3c(c(-c4ccc(N5CCOCC5)cc4)c2cc1OC)C(=O)OC3.Cl` [Example 245, 6,7-dimethoxy-9-(4-morpholinophenyl)naphtho[2,3-c]furan-1(3H)-one], in data set [1], the “SI (Selectivity Index, CC50/IC50)” value came to 1.00. Besides, the IC50 in data set [1] (setting [3]) was greater than 50 µM. In addition, the CC50 in data set [2] is greater than 50 µM.
With `COc1cc2cc3c(c(-c4ccc(N5CCOCC5)nc4)c2cc1OC)C(=O)OC3` [Example 124, 6,7-dimethoxy-9-(6-morpholinopyridin-3-yl)naphtho[2,3-c]furan-1(3H)-one], in data set [1], the “SI (Selectivity Index, CC50/IC50)” value came to 176.18. Also, in data set [1] (setting [4]), the IC50 came out at 0.28 µM. In addition, in data set [2], the CC50 was greater than 50 µM.
Taken in the same sequence, the figures for `CCN(Cc1ccccc1C(F)(F)F)c1ccc(-c2c3c(cc4cc(OC)c(OC)cc24)COC3=O)cn1` [Example 209, 9-(6-(ethyl(2-(trifluoromethyl)benzyl)amino)pyridin-3-yl)-6,7-dimethoxynaphtho[2,3-c]furan-1(3H)-one] were 14.52, 3.44 µM and greater than 50 µM.
For the compound `COc1cc2cc3c(c(-c4cnc(N(C)CCN5CCOCC5)nc4)c2cc1OC)C(=O)OC3` [Example 111, 6,7-dimethoxy-9-(2-(methyl(2-morpholinoethyl)amino)pyrimidin-5-yl)naphtho[2,3-c]furan-1(3H)-one hydrochloride], the “SI (Selectivity Index, CC50/IC50)” value in data set [1] was determined as 2.37. The IC50 in data set [1] (setting [3]) was 21.1 µM. The compound further had a CC50 in data set [2] greater than 50 µM.
Take `COCCN(CCOC)c1ncc(-c2c3c(cc4cc(OC)c(OC)cc24)COC3=O)cn1` [Example 72, 9-(2-(bis(2-methoxyethyl)amino)pyrimidin-5-yl)-6,7-dimethoxynaphtho[2,3-c]furan-1(3H)-one]: in data set [1], the “SI (Selectivity Index, CC50/IC50)” value is given as 1.64. Also, in data set [1] (setting [4]), the concentration for half-maximal inhibition (IC50) was 30.4 µM. Besides, in data set [2], the CC50 was greater than 50 µM.
The matching figures for `COc1cc2cc3c(c(-c4ccc(N(C)c5nnc(C)s5)nc4)c2cc1OC)C(=O)OC3` [Example 214, 6,7-dimethoxy-9-(6-(methyl(5-methyl-1,3,4-thiadiazol-2-yl)amino)pyridin-3-yl)naphtho[2,3-c]furan-1(3H)-one]: 1.00, greater than 50 µM and greater than 50 µM.
